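Step 1: Grow cells in 96-well plates. Step 2: Expose to compound for 48 hours at 5 concentrations. Step 3: Interpolate endpoints linearly; if unreached, use highest concentration. GI50 marks 50% less growth. TGI: concentration producing complete growth inhibition.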
Legend:
Test in all cases: NCI tumour cell line growth inhibition, 48 h
ACHN renal = test system: ACHN renal
A549 NSCLC = test system: A549 NSCLC
RPMI-8226 leukemia = test system: RPMI-8226 leukemia
HCT-116 colon = test system: HCT-116 colon
SK-MEL-5 melanoma = test system: SK-MEL-5 melanoma
OVCAR-8 ovarian = test system: OVCAR-8 ovarian
IGROV1 ovarian = test system: IGROV1 ovarian
U251 CNS = test system: U251 CNS
HCC-2998 colon = test system: HCC-2998 colon
HS 578T breast = test system: HS 578T breast
BT-549 breast = test system: BT-549 breast

SMILES | TGI (ACHN renal) | TGI (A549 NSCLC) | TGI (RPMI-8226 leukemia) | TGI (HCT-116 colon) | TGI (SK-MEL-5 melanoma) | TGI (OVCAR-8 ovarian) | TGI (IGROV1 ovarian) | TGI (U251 CNS) | TGI (HCC-2998 colon) | TGI (HS 578T breast) | TGI (BT-549 breast) | GI50 (RPMI-8226 leukemia)
COc1ccc(/C=N/N=C(N)N)c(C(=O)O)c1OC | > 100 µM | > 100 µM | > 100 µM | > 100 µM | > 100 µM | > 100 µM | > 10 µM | > 100 µM | – | – | – | –
CC12CCC3=C(CSC4=C3CSc3ccccc34)C1=CCCC2=O (configuration not stated) | > 100 µM | > 100 µM | > 100 µM | > 100 µM | 53 µM | > 100 µM | – | > 100 µM | > 100 µM | – | – | –
CSc1nc(NC2CC2)c2c(n1)Sc1nc3ccccc3n1N=C2 | 31.1 µM | 97 µM | – | 27.4 µM | 49.5 µM | 85.3 µM | > 100 µM | 61.8 µM | > 100 µM | 24.2 µM | > 100 µM | –
COC(=O)[C@@]12CC3CN(Cc4c1[nH]c1ccccc41)C2CC3=O | > 100 µM | > 100 µM | > 100 µM | > 100 µM | – | > 100 µM | > 100 µM | > 100 µM | > 100 µM | – | > 100 µM | –
O=c1[nH]nc(Nc2ccccc2)c2nnn(Cc3ccccc3)c12 | > 100 µM | > 100 µM | – | > 100 µM | > 100 µM | > 100 µM | > 100 µM | > 100 µM | > 100 µM | 90.4 µM | > 100 µM | –
C=CCCCN1C(=O)C2C3c4ccccc4C(C=O)(c4ccccc43)C2C1=O (configuration not stated) | > 100 µM | 35.9 µM | 28.5 µM | 14.9 µM | 23.5 µM | 26.5 µM | 65.1 µM | 24.9 µM | 28.5 µM | – | – | –
COc1cc(C(C)(C)C)c(OC(=O)/C=C/C(=O)O/C=C/[N+](=O)[O-])c(C(C)(C)C)c1 | > 100 µM | 55 µM | > 100 µM | > 100 µM | > 100 µM | > 100 µM | > 100 µM | > 100 µM | > 100 µM | 63.9 µM | – | –
CS(=O)(=O)c1ccc(C2=C(c3ccccc3)C(=O)OC2)cc1 | > 100 µM | > 100 µM | > 100 µM | > 100 µM | > 100 µM | > 100 µM | > 100 µM | > 100 µM | > 100 µM | > 100 µM | – | –
CCCc1c(OC)c(O)c2c(=O)cc(OC)c3c4c(OC)cc(=O)c5c(O)c(OC)c(CCC)c(c1c23)c54 | 17 µM | 25.8 µM | > 100 µM | 13.2 µM | 11.5 µM | 22.6 µM | 16.2 µM | 6.41 µM | 34.9 µM | – | 19.8 µM | –
Cc1ccc(N=c2oc3c(ccc4ccccc43)nc2Nc2ccc(C)cc2)cc1 | > 100 µM | > 100 µM | > 100 µM | > 100 µM | > 100 µM | > 100 µM | > 100 µM | > 100 µM | > 100 µM | > 100 µM | – | –
COc1c(Cl)ccc(Cl)c1-c1nnc(-c2c(Cl)c(Cl)c(Cl)c(Cl)c2-c2nc3ccc(C(=O)c4ccccc4)cc3[nH]2)o1 | > 100 µM | > 100 µM | 87.4 µM | > 100 µM | 36 µM | > 100 µM | > 100 µM | > 100 µM | – | > 100 µM | > 100 µM | –
O=C1CCCn2c3ccccc3c3ccnc1c32 | – | > 100 µM | > 100 µM | > 100 µM | > 100 µM | > 100 µM | > 100 µM | > 100 µM | > 100 µM | – | – | –
COc1ccc(NC(=O)c2cc(NC(=O)/C=C/c3ccccc3)c(OC)c(OC)c2)cc1 | > 100 µM | > 100 µM | > 100 µM | > 100 µM | > 100 µM | – | – | > 100 µM | – | > 100 µM | – | –
CSCC[C@@H](NC(=O)[C@H](CC(C)C)NC(=O)C(Cc1cnc[nH]1)NC(=O)CNC(=O)[C@@H](NC(=O)[C@H](C)NC(=O)[C@H](Cc1cn(C=O)c2ccccc12)NC(=O)[C@H](CCC(N)=O)NC(=O)[C@@H](N)CC(N)=O)C(C)C)C(N)=O (some centres not stated) | – | > 100 µM | > 100 µM | > 100 µM | > 100 µM | > 100 µM | > 100 µM | > 100 µM | > 100 µM | – | – | –
N.N.NCCCCN.O=C([O-])CCl.O=C([O-])CCl.O=C([O-])CCl.O=C([O-])CCl.[Pt+4].[Pt+4] | > 50 µM | > 50 µM | > 50 µM | > 50 µM | > 50 µM | > 50 µM | > 50 µM | > 50 µM | > 50 µM | – | – | > 50 µM
CCCCOP(=O)(OCCCC)C(NS(=O)(=O)c1ccccc1)(C(=O)OCC)C(F)(F)F (configuration not stated) | 85.1 µM | > 100 µM | 66.1 µM | 66.9 µM | 33.9 µM | > 100 µM | 65.6 µM | 65 µM | > 100 µM | > 100 µM | – | –
